In a compilation of properties of binary mixtures (doi:10.1016/j.jct.2020.106330):

Assay: xn = mol fraction of the nth substance listed
Conditions: 101.3 kPa

CN1CCCC1=O + CCCC[n+]1ccn(C)c1.F[P-](F)(F)(F)(F)F
x2 = 0
Conditions | speed of sound [m/s]
308.15 K | 1505
313.15 K | 1485.7
318.15 K | 1466.7
323.15 K | 1447.8

CCCC[n+]1ccn(C)c1.F[P-](F)(F)(F)(F)F + CN1CCCC1=O
speed of sound [m/s]
Conditions | 303.15 K | 308.15 K | 313.15 K | 318.15 K | 323.15 K
x1 = 0.0513 | 1522.2 | 1503.9 | 1485.8 | – | 1450.1
x1 = 0.1028 | 1516.1 | 1498.8 | 1481.6 | 1464.5 | 1447.6
x1 = 0.1422 | 1510 | 1493.2 | 1476.6 | 1460.1 | 1443.8
x1 = 0.1894 | – | 1486 | 1470 | 1454.1 | 1438.4
x1 = 0.2988 | – | 1470.9 | 1456 | 1441.3 | 1426.7
x1 = 0.499 | 1460.7 | 1447.2 | 1433.9 | – | 1407.6
x1 = 0.591 | – | 1438.8 | 1425.9 | – | 1400.6
x1 = 0.6991 | – | – | 1419.4 | 1407.1 | –
x1 = 0.812 | 1437.9 | 1425.8 | 1413.8 | 1402 | 1390.3
x1 = 0.8415 | 1436.6 | 1424.5 | 1412.6 | 1400.9 | 1389.3
x1 = 0.8812 | 1434.9 | – | 1411.2 | 1399.6 | 1388.1
x1 = 0.9423 | 1432.9 | 1421.1 | – | 1398 | –
x1 = 1 | – | 1419.8 | 1408.2 | 1396.8 | 1385.6
